One may read the IC50 as the midpoint of a concentration-inhibition curve.

These results are taken from article PMC9571547, “New Triazinoindole Bearing Benzimidazole/Benzoxazole Hybrids Analogs as Potent Inhibitors of Urease: Synthesis, In Vitro Analysis and Molecular Docking Studies” (Molecules, 2022).

Each structure is given as a SMILES string.

The target in one assay is urease enzyme (Canavalia ensiformis, UniProt P07374). Nature of the assay: biochemical. The assay is classed as biochemical.
urease enzyme, sequence (P07374 whole entry, looked up): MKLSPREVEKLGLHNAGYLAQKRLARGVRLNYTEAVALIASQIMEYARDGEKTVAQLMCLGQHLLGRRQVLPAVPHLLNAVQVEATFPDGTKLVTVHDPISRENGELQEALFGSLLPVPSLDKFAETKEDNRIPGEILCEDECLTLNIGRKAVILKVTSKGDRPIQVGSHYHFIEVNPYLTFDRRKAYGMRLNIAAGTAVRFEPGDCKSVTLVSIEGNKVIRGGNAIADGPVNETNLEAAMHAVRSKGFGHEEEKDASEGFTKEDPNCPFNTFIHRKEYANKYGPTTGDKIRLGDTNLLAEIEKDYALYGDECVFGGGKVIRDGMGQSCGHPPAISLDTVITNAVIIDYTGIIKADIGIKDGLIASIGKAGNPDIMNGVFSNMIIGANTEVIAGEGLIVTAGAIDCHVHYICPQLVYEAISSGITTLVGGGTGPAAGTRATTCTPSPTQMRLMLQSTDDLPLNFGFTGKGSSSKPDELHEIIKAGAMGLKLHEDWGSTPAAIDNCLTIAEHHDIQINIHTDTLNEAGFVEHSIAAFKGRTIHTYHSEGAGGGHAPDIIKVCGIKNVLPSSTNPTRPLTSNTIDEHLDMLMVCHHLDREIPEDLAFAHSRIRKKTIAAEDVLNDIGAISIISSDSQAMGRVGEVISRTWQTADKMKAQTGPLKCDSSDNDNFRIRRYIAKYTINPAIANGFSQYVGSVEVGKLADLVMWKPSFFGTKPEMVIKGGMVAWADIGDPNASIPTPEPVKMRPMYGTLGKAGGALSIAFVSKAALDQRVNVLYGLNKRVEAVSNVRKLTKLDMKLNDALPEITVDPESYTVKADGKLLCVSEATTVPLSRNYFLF
Details: not given
The procedure:
First, 5 μL of the test compounds were added to the reaction mixtures, which also contained 25 μL of enzyme solution and 55 μL of buffer containing 100 mM urea, then the mixtures were incubated in 96-well plates at 30 °C for 15 min (0.5 mM concentration). For the kinetics analysis, urea concentrations were changed from 2 to 24 mM. Urease activity was determined by measuring ammonia generation using Weatherburn’s indophenol method. In a nutshell, each well received 45 μL of the 0.005% w/v sodium nitroprusside, phenol reagent 1% w/v phenol, and 70 μL of the alkali reagent—0.1% active chloride NaOCl and 0.5% w/v NaOH. Using a microplate reader, rising absorbance at 630 nm was observed after 50 min (Molecular Devices, San Jose, CA, USA). In a final volume of 200 μL, each reaction was carried out three times. Using the software SoftMaxPro, the results (change in absorbance per minute) were processed (Molecular Devices, San Jose, CA, USA). The experiments were run at pH 6.8 throughout. The formula 100-(ODtest well/ODcontrol) 100 was used to calculate the percentage of inhibition.
As for `COc1ccc(C(=O)n2c3ccc([N+](=O)[O-])cc3c3nnc(SCc4nc5ccccc5o4)nc32)c(OC)c1` [analog 21], the IC50 was determined as 31.8 ± 0.5 µM.
Regarding `O=C(c1cccc([N+](=O)[O-])c1)n1c(CSc2nnc3c4cc([N+](=O)[O-])ccc4n(C(=O)c4cccc([N+](=O)[O-])c4)c3n2)nc2ccccc21` [analog 11], half-maximal inhibition (IC50) required 26.6 ± 0.5 µM.
In turn, `O=C(c1ccc([N+](=O)[O-])cc1)n1c(CSc2nnc3c4cc([N+](=O)[O-])ccc4n(C(=O)c4ccc([N+](=O)[O-])cc4)c3n2)nc2ccccc21` [analog 1] gave an IC50 of 17.6 ± 0.3 µM.
In the case of `COC(=O)c1ccc(C(=O)n2c3ccc([N+](=O)[O-])cc3c3nnc(SCc4nc5ccccc5o4)nc32)cc1` [analog 14], the IC50 stood at 23.9 ± 0.5 µM.
The compound `O=C(c1ccccc1[N+](=O)[O-])n1c(CSc2nnc3c4cc([N+](=O)[O-])ccc4n(C(=O)c4ccccc4[N+](=O)[O-])c3n2)nc2ccccc21` [analog 10] showed an IC50 of 19.3 ± 0.4 µM.
In the case of `O=C(c1ccccc1O)n1c2ccc([N+](=O)[O-])cc2c2nnc(SCc3nc4ccccc4o3)nc21` [analog 18], the IC50 turned out to be 3.8 ± 0.1 µM.
In the case of `O=C(c1cc(O)cc(O)c1)n1c(CSc2nnc3c4cc([N+](=O)[O-])ccc4n(C(=O)c4cc(O)cc(O)c4)c3n2)nc2ccccc21` [analog 3], half-maximal inhibition (IC50) was put at 2.1 ± 0.1 µM.
Consider `CN(C)c1ccc(C(=O)n2c(CSc3nnc4c5cc([N+](=O)[O-])ccc5n(C(=O)c5ccc(N(C)C)cc5)c4n3)nc3ccccc32)cc1` [analog 9], for which half-maximal inhibition (IC50) was put at 31.1 ± 0.3 µM.
On to `O=C(c1ccccc1F)n1c2ccc([N+](=O)[O-])cc2c2nnc(SCc3nc4ccccc4o3)nc21` [analog 23], for which the IC50 was found to be 1.1 ± 0.01 µM.
`O=C(c1cccc(Cl)c1)n1c2ccc([N+](=O)[O-])cc2c2nnc(SCc3nc4ccccc4o3)nc21` [analog 17]: it took 22.2 ± 0.5 µM to reach half-maximal inhibition (IC50).
Take `O=C(c1cccc(F)c1)n1c2ccc([N+](=O)[O-])cc2c2nnc(SCc3nc4ccccc4o3)nc21` [analog 24]: the IC50 was 1.6 ± 0.01 µM.
Turning to `O=C(c1cc(O)ccc1O)n1c(CSc2nnc3c4cc([N+](=O)[O-])ccc4n(C(=O)c4cc(O)ccc4O)c3n2)nc2ccccc21` [analog 6], the IC50 came out at 6.7 ± 0.2 µM.
As for `O=C(c1ccc(O)cc1O)n1c(CSc2nnc3c4cc([N+](=O)[O-])ccc4n(C(=O)c4ccc(O)cc4O)c3n2)nc2ccccc21` [analog 2], the IC50 is 1.9 ± 0.1 µM.
Compound `O=C(c1c(O)cc(O)cc1O)n1c(CSc2nnc3c4cc([N+](=O)[O-])ccc4n(C(=O)c4c(O)cc(O)cc4O)c3n2)nc2ccccc21` [analog 8] showed an IC50 of 0.2 ± 0.01 µM.
In turn, `Cc1ccccc1C(=O)n1c2ccc([N+](=O)[O-])cc2c2nnc(SCc3nc4ccccc4o3)nc21` [analog 15] gave an IC50 of 36.2 ± 0.7 µM.
As for `O=C(c1ccc(Cl)cc1)n1c2ccc([N+](=O)[O-])cc2c2nnc(SCc3nc4ccccc4o3)nc21` [analog 13], 9.7 ± 0.2 µM corresponded to half-maximal inhibition (IC50).
Turning to `COc1ccccc1C(=O)n1c(CSc2nnc3c4cc([N+](=O)[O-])ccc4n(C(=O)c4ccccc4OC)c3n2)nc2ccccc21` [analog 4], the IC50 is 32.2 ± 0.3 µM.
Compound `O=C(c1ccc(O)c(O)c1)n1c(CSc2nnc3c4cc([N+](=O)[O-])ccc4n(C(=O)c4ccc(O)c(O)c4)c3n2)nc2ccccc21` [analog 5] yielded an IC50 of 0.9 ± 0.01 µM.
The same measure, in the same setting: as for `O=C(c1ccc(O)cc1)n1c(CSc2nnc3c4cc([N+](=O)[O-])ccc4n(C(=O)c4ccc(O)cc4)c3n2)nc2ccccc21` [analog 12], the figure is 14.6 ± 0.3 µM.
Compound `COc1ccc(C(=O)n2c3ccc([N+](=O)[O-])cc3c3nnc(SCc4nc5ccccc5o4)nc32)cc1O` [analog 20] returned an IC50 of 2.7 ± 0.1 µM.
Same read-out and setting: as for `O=C(c1cccc([N+](=O)[O-])c1)n1c2ccc([N+](=O)[O-])cc2c2nnc(SCc3nc4ccccc4o3)nc21` [analog 25], the figure is 21.2 ± 0.4 µM; as for `Cc1ccc(C(=O)n2c3ccc([N+](=O)[O-])cc3c3nnc(SCc4nc5ccccc5o4)nc32)cc1` [analog 16], 28.2 ± 0.5 µM.
On the same count and under the same terms, as for `Cc1cccc(C(=O)n2c3ccc([N+](=O)[O-])cc3c3nnc(SCc4nc5ccccc5o4)nc32)c1` [analog 19], the figure is 34.9 ± 0.7 µM; as for `O=C(c1cccc(O)c1O)n1c2ccc([N+](=O)[O-])cc2c2nnc(SCc3nc4ccccc4o3)nc21` [analog 22], 1.7 ± 0.1 µM.
For `O=C(c1cccc(O)c1)n1c(CSc2nnc3c4cc([N+](=O)[O-])ccc4n(C(=O)c4cccc(O)c4)c3n2)nc2ccccc21` [analog 7], the IC50 came out at 18.9 ± 0.4 µM.

The assay is the same for the next values; noted with them: in vitro; pH 6.8; 30 °C; 100 mM urea; thiourea as standard; read-out: IC50 ± SEM against the urease enzyme.
On to `NC(N)=S` [Standard Thiourea, thiourea, reference compound], for which the IC50 was found to be 21.9 ± 0.4 µM.

Staying with this assay, now noted: urease inhibition, compared to thiourea.
Regarding `O=C(c1ccccc1F)n1c2ccc([N+](=O)[O-])cc2c2nnc(SCc3nc4ccccc4o3)nc21` [analog 23], the “potency relative to standard thiourea drug (fold)” value was “ten-fold-enhanced inhibitory potential”.
With `O=C(c1cccc(O)c1O)n1c2ccc([N+](=O)[O-])cc2c2nnc(SCc3nc4ccccc4o3)nc21` [analog 22], the “potency relative to standard thiourea drug (fold)” value is recorded as “ten-fold-enhanced inhibitory potential”.
